For this series the following is noted: 293.2 K; 101.33 kPa; Liquid; Vibrating tube method.

In general, mass density refers to the mass of a sample divided by its volume.

± gives the expanded uncertainty stated by the source.

On to `CC[n+]1ccc(C)cc1.O=S(=O)([N-]S(=O)(=O)C(F)(F)F)C(F)(F)F`, for which the mass density was determined as 1489.9 ± 0.7 kg/m3. To `CCn1cc[n+](C)c1.N#CN=C=[N-]` [1-ethyl-3-methylimidazolium dicyanamide] belongs 1104.9 ± 1.1 kg/m3.

These data come from the NIST ThermoML archive (doi:10.1016/j.fluid.2016.02.018).
